These results are taken from US20230089073A1 (Carmot Therapeutics, Inc., priority 2021, published 2023).

Where only a bound is given, the exact number is not on record here.

In this experiment the target is T1, human GLP-1 receptor (Homo sapiens, UniProt P43220).
T1 construct: expressed in transfected cells
In words: GLP-1R cAMP Assay. In kind it is cell-based. The settings on record: cAMP accumulation in CHO cells stably overexpressing the human GLP-1 receptor; 30 min treatment; HitHunter cAMP kit; read-out: EC50. Here is the method: cAMP accumulation was measured in Chinese hamster ovary (CHO) cells stably overexpressing the human GLP-1 receptor using the HitHunter cAMP Assay for Small Molecules Kit (Eurofins). Briefly, cells were grown in Ham's F12 Nutrient Mix with 10% FBS, and lifted with Cell Dissociation Buffer, Enzyme free, PBS based (ThermoFisher). […] The anti-cAMP antibody reagent was then added to cells at a 1:2 ratio and 5 μL of mixture was seeded in 384-well small volume white assay plates, at 10,000 cells/well. Cells were then treated with 50 nL compound using an ECHO 550 acoustic dispenser (Labcyte) in a 20-point dose response format in triplicate for 30 min. Cells were then lysed, and detection reagents added according to the manufacturer's protocol. After overnight incubation, luminescence was measured using a Perkin Elmer Envision plate reader. Dose response curves were analyzed using GraphPad Prism 9.0.
On the technique in general: Cyclic AMP is a second messenger, typically raised through Gs and lowered through Gi signalling.

T1 sequence (P43220 24-463): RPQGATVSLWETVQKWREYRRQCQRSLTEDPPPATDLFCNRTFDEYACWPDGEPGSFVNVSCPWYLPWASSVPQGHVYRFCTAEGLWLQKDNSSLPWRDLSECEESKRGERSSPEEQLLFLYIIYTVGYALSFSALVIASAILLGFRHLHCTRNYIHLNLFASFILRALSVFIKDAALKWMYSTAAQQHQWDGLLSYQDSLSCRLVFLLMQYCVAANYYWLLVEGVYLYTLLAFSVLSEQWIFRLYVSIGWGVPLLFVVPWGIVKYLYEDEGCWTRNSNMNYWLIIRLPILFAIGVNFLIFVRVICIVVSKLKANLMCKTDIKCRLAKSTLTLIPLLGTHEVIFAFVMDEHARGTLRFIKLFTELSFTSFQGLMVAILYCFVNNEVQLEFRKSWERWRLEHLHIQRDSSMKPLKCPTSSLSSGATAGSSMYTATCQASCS

The EC50 is the concentration needed to bring the measured effect to its halfway point. For the compound `O=C(O)c1ccc2nc(CN3CCC(Oc4ccnc(COc5ccc(Cl)cc5F)c4)CC3)n(C[C@@H]3CCO3)c2c1` [Compound 250, 2-{[4-({2-[(4-chloro-2-fluorophenoxy)methyl]pyridin-4-yl}oxy)piperidin-1-yl]methyl}-1-{[(2S)-oxetan-2-yl]methyl}-1H-1,3-benzodiazole-6-carboxylic acid], the EC50 was less than 50 nM.

As to `N#CCC1(Cn2c(CN3CCC(Oc4ccnc(COc5ccc(Cl)cc5F)c4)CC3)nc3ccc(C(=O)O)cc32)CC1` [Compound 337], the EC50 is less than 50 nM.

As to `N#Cc1cc(Cl)ccc1OCc1cccc(OC2CCN(Cc3nc4ccc(C(=O)O)cc4n3Cc3ncco3)CC2)c1` [Compound 232, 2-[(4-{3-[(4-chloro-2-cyanophenoxy)methyl]phenoxy}piperidin-1-yl)methyl]-1-[(1,3-oxazol-2-yl)methyl]-1H-1,3-benzodiazole-6-carboxylic acid], the EC50 is less than 50 nM.

As to `CCn1cncc1Cn1c(CN2CCN(C(=O)c3cccc(Nc4ccc(C)cc4Cl)c3)CC2)nc2ccc(C(=O)O)cc21` [Compound 58, 2-[(4-{3-[(2-chloro-4-methylphenyl)amino]benzoyl}piperazin-1-yl)methyl]-1-[(1-ethyl-1H-imidazol-5-yl)methyl]-1H-1,3-benzodiazole-6-carboxylic acid], the concentration for a half-maximal effect (EC50) is greater than 500 nM.

For the compound `C[C@H]1C[C@@H](Oc2ccnc(COc3ccc(C#N)cc3Cl)n2)CCN1Cc1nc2ccc(C(=O)O)cc2n1C[C@@H]1CCO1` [Compound 477, 2-{[(2S,4S)-4-({2-[(2-chloro-4-cyanophenoxy)methyl]pyrimidin-4-yl}oxy)-2-methylpiperidin-1-yl]methyl}-1-{[(2S)-oxetan-2-yl]methyl}-1H-1,3-benzodiazole-6-carboxylic acid], the EC50 was less than 50 nM.

As to `C[C@H]1C[C@@H](Oc2ccnc(COc3ccc(C#N)cc3F)n2)CCN1Cc1nc2ccc(C(=O)O)cc2n1C[C@H]1CCOC1` [Compound 515, 2-{[(2S,4S)-4-({2-[(4-cyano-2-fluorophenoxy)methyl]pyrimidin-4-yl}oxy)-2-methylpiperidin-1-yl]methyl}-1-{[(3R)-oxolan-3-yl]methyl}-1H-1,3-benzodiazole-6-carboxylic acid], the concentration giving a half-maximal response (EC50) is less than 50 nM.

On to `O=C(O)c1ccc2nc(CN3CCC(Oc4ccnc(COc5ccc(Cl)cc5Cl)c4)CC3)n(C[C@@H](O)CCO)c2c1` [Compound 227, 2-{[4-({2-[(2,4-dichlorophenoxy)methyl]pyridin-4-yl}oxy)piperidin-1-yl]methyl}-1-[(2S)-2,4-dihydroxybutyl]-1H-1,3-benzodiazole-6-carboxylic acid], for which the EC50 is less than 50 nM.

For the compound `CCn1cncc1Cn1c(CN2CCC(Oc3cccc(COc4ccc(Cl)cc4Cl)c3)CC2)nc2ccc(C(=O)O)cc21` [Example 157, 2-((4-(3-((2,4-Dichlorophenoxy)methyl)phenoxy)piperidin-1-yl)methyl)-1-((1-ethyl-1H-imidazol-5-yl)methyl)-1H-benzo[d]imidazole-6-carboxylic acid], the EC50 is less than 50 nM.

Consider `O=C(O)c1ccc2nc(CN3CCN(C(=O)c4cccc(Oc5cc(Cl)ccc5F)c4)CC3)n(C[C@@H]3CCO3)c2c1` [Compound 12, 2-({4-[3-(5-chloro-2-fluorophenoxy)benzoyl]piperazin-1-yl}methyl)-1-{[(2S)-oxetan-2-yl]methyl}-1H-1,3-benzodiazole-6-carboxylic acid], for which the half-maximal effective concentration (EC50) is greater than 500 nM.

`C[C@H]1C[C@@H](Oc2ccnc(COc3ccc(F)cc3C#N)n2)CCN1Cc1nc2ccc(C(=O)O)cc2n1CC1(CC#N)CC1` [Compound 353]: the concentration giving a half-maximal response (EC50) was less than 50 nM.

`Cc1ccc(N(C)c2cc(F)cc(C(=O)N3CCN(Cc4nc5ccc(C(=O)O)cc5n4C[C@@H]4CCO4)CC3)c2)c(Cl)c1` [Compound 100, 2-[(4-{3-[(2-chloro-4-methylphenyl)(methyl)amino]-5-fluorobenzoyl}piperazin-1-yl)methyl]-1-{[(2S)-oxetan-2-yl]methyl}-1H-1,3-benzodiazole-6-carboxylic acid]: the concentration giving a half-maximal response (EC50) was less than 50 nM.

`N#Cc1ccc(OCc2cc(OC3CCN(Cc4nc5c(F)cc(C(=O)O)cc5n4C[C@@H]4CCO4)CC3)c(F)cn2)c(F)c1` [Compound 478, 2-{[4-({2-[(4-cyano-2-fluorophenoxy)methyl]-5-fluoropyridin-4-yl}oxy)piperidin-1-yl]methyl}-4-fluoro-1-{[(2S)-oxetan-2-yl]methyl}-1H-1,3-benzodiazole-6-carboxylic acid]: the EC50 was less than 50 nM.

Turning to `CCn1cncc1Cn1c(CN2CCC(Oc3ccnc(COc4ccc(Cl)cc4CO)c3)CC2)nc2ccc(C(=O)O)cc21` [Compound 287, 2-({4-[(2-{[4-chloro-2-(hydroxymethyl)phenoxy]methyl}pyridin-4-yl)oxy]piperidin-1-yl}methyl)-1-[(1-ethyl-1H-imidazol-5-yl)methyl]-1H-1,3-benzodiazole-6-carboxylic acid], the half-maximal effective concentration (EC50) was less than 50 nM.

On to `Cc1ccc(OCc2cccc(C(=O)N3CCN(Cc4nc5ccc(C(=O)O)cc5n4C[C@@H]4CCO4)CC3)c2)c(Cl)c1` [Compound 64, 2-[(4-{3-[(2-chloro-4-methylphenoxy)methyl]benzoyl}piperazin-1-yl)methyl]-1-{[(2S)-oxetan-2-yl]methyl}-1H-1,3-benzodiazole-6-carboxylic acid], for which the 50% effective concentration (EC50) is 50 to 500 nM.

On to `CCn1cncc1Cn1c(CN2CCN(C(=O)c3cccc(Oc4ccc(C)cc4Cl)c3)CC2)nc2ccc(C(=O)O)cc21` [Example 57, 2-((4-(3-(2-Chloro-4-methylphenoxy)benzoyl)piperazin-1-yl)methyl)-1-((1-ethyl-1H-imidazol-5-yl)methyl)-1H-benzo[d]imidazole-6-carboxylic acid], for which the half-maximal effective concentration (EC50) lay within 50 to 500 nM.

As to `N#CCC1(Cn2c(CN3CCC(Oc4ccnc(COc5ccc(C(F)F)cc5F)c4)CC3)nc3ccc(C(=O)O)cc32)CC1` [Compound 362], the EC50 was less than 50 nM.

For `Cc1c(Cl)cccc1OCc1ccc(C(=O)N2CCN(Cc3nc4ccc(C(=O)O)cc4n3C[C@@H]3CCO3)CC2)o1` [Example 19, (S)-2-((4-(5-((3-Chloro-2-methylphenoxy)methyl)furan-2-carbonyl)piperazin-1-yl)methyl)-1-(oxetan-2-ylmethyl)-1H-benzo[d]imidazole-6-carboxylic acid], the concentration for a half-maximal effect (EC50) was 50 to 500 nM.

For the compound `O=C(O)c1cc(F)c2nc(CN3CCC(Oc4ccnc(COc5ccc(Cl)cc5Cl)n4)CC3)n(C[C@@H]3CCO3)c2c1` [Compound 305], the EC50 was less than 50 nM.

Regarding `O=C(O)c1ccc2nc(CN3CCC(Oc4cccc(COc5ncc(Cl)cc5F)c4)CC3)n(C[C@@H]3CCO3)c2c1` [Compound 288, 2-{[4-(3-{[(5-chloro-3-fluoropyridin-2-yl)oxy]methyl}phenoxy)piperidin-1-yl]methyl}-1-{[(2S)-oxetan-2-yl]methyl}-1H-1,3-benzodiazole-6-carboxylic acid], the EC50 was greater than 500 nM.

Turning to `Cc1ccc(N(C)c2cccc(C(=O)N3CCN(Cc4nc5ccc(C(=O)O)cc5n4C[C@@H]4CCO4)CC3)c2)cc1` [Compound 29, 2-[(4-{3-[methyl(4-methylphenyl)amino]benzoyl}piperazin-1-yl)methyl]-1-{[(2S)-oxetan-2-yl]methyl}-1H-1,3-benzodiazole-6-carboxylic acid], the concentration giving a half-maximal response (EC50) is 50 to 500 nM.

For the compound `O=C(O)c1ccc2nc(CN3CCN(C(=O)c4cccc(Cc5ccc(F)cc5)c4)CC3)n(C[C@@H]3CCO3)c2c1` [Compound 3, 2-[(4-{3-[(4-fluorophenyl)methyl]benzoyl}piperazin-1-yl)methyl]-1-{[(2S)-oxetan-2-yl]methyl}-1H-1,3-benzodiazole-6-carboxylic acid], the EC50 was greater than 500 nM.

Turning to `O=C(O)c1ccc2nc(CN3CCC(Oc4ccnc(COc5ccc(Cl)cc5F)c4)CC3)n(CC34CC(CO3)C4)c2c1` [Compound 333], the EC50 is less than 50 nM.

`N#Cc1ccc(OCc2nccc(O[C@H]3C[C@H]4C[C@@H]3CN4Cc3nc4ccc(C(=O)O)cc4n3C[C@@H]3CCO3)n2)c(F)c1` [Compound 507, 2-{[(1R,4R,5S)-5-({2-[(4-cyano-2-fluorophenoxy)methyl]pyrimidin-4-yl}oxy)-2-azabicyclo[2.2.1]heptan-2-yl]methyl}-1-{[(2S)-oxetan-2-yl]methyl}-1H-1,3-benzodiazole-6-carboxylic acid]: the EC50 was less than 50 nM.

As for `CN(C)C(=O)c1ccc(OCc2ccc(C(=O)N3CCN(Cc4nc5ccc(C(=O)O)cc5n4C[C@@H]4CCO4)CC3)o2)c(F)c1` [Compound 49, 2-{[4-(5-{[4-(dimethylcarbamoyl)-2-fluorophenoxy]methyl}furan-2-carbonyl)piperazin-1-yl]methyl}-1-{[(2S)-oxetan-2-yl]methyl}-1H-1,3-benzodiazole-6-carboxylic acid], the concentration for a half-maximal effect (EC50) was greater than 500 nM.

As to `O=C(O)c1ccc2nc(CN3CCc4[nH]c5ccc(OCc6ccc(Cl)cc6Cl)cc5c4C3)n(C[C@@H]3CCO3)c2c1` [Compound 142, 2-({8-[(2,4-dichlorophenyl)methoxy]-1H,2H,3H,4H,5H-pyrido[4,3-b]indol-2-yl}methyl)-1-{[(2S)-oxetan-2-yl]methyl}-1H-1,3-benzodiazole-6-carboxylic acid], the EC50 is greater than 500 nM.

`N#CCC1(Cn2c(CN3CCC(Oc4ccnc(COc5ccc(F)cc5C#N)n4)CC3)nc3c(F)cc(C(=O)O)cc32)CC1` [Compound 349]: the EC50 was less than 50 nM.

For the compound `N#Cc1ccc(OCc2ccc(F)c(OC3CCN(Cc4nc5ccc(C(=O)O)cc5n4C[C@@H]4CCO4)CC3)n2)c(F)c1` [Example 330, (S)-2-((4-((6-((4-Cyano-2-fluorophenoxy)methyl)-3-fluoropyridin-2-yl)oxy)piperidin-1-yl)methyl)-1-(oxetan-2-ylmethyl)-1H-benzo[d]imidazole-6-carboxylic acid], the EC50 is less than 50 nM.
